Assay results reported in patent publication EP4745127A1, “PYRIMIDINAMINE NUAK INHIBITOR AS WELL AS PREPARATION METHOD THEREFOR AND USE THEREOF” (Technoderma Medicines Inc., priority 2023, dated 2025).

What was measured:
NUAK1 = molecular target: T1, NUAK1 (Homo sapiens, UniProt O60285); experiment: Kinase activity inhibition assay, P81 filter paper binding hot-spot technique (33P-ATP, CHKtide substrate); type: biochemical; conditions: final concentration of NUAK1 10 nM; 20 µM CHKtide substrate; incubated 2 hours at room temperature; read-out: IC50 (nM) of Test Compounds of the Present Application against NUAK1
T1 sequence (O60285 1-661): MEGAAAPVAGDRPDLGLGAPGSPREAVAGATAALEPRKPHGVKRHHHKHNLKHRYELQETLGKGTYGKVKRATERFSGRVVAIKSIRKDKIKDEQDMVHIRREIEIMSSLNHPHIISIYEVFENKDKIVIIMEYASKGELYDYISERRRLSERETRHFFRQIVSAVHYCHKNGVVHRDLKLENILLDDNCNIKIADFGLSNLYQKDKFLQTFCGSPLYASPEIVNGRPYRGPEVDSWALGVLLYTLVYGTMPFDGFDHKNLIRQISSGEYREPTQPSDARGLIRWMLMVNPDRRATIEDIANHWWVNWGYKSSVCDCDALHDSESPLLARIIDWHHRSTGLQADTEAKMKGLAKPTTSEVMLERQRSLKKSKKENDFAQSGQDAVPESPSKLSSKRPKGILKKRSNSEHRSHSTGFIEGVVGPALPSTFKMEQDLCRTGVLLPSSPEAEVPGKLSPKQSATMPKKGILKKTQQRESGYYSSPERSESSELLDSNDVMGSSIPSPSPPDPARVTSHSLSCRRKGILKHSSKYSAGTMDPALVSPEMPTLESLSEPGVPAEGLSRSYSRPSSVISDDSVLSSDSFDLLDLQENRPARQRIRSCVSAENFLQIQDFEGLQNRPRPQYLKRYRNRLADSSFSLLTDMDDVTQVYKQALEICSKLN
Description: (§1) The inhibitory activity of the pyrimidinamine small molecules involved in the present application against NUAK1 and NUAK2 kinases was determined using a kinase activity assay based on the P81 filter paper binding hot-spot technique (Nat Biotechnol. 2011, 29:1039). A brief description is as follows:
(§2) The assay buffer system contained 20 mM Hepes (pH 7.5), 10 mM MgCl2, 1 mM EGTA, 0.01% Brij35 (L23 polyoxyethylene lauryl ether), 0.02 mg/mL BSA (bovine serum albumin), 0.1 mM Na3VO4, 2 mM DTT, and 1% DMSO.
(§3) • 1. A 20 µM substrate solution was prepared with freshly prepared test buffer and CHKtide peptide fragments (Sanchez Y. Science. 1997, 277: 1497-1501) were used as a substrate. • 2. Kinases were added and mixed gently (a final concentration of NUAK1 was 10 nM; and a final concentration of NUAK2 was 50 nM). • 3. Test compounds dissolved in 100% DMSO were each added to the above kinase reaction mixture solution via Acoustic Droplet Ejection (Echo550; nanoliter) and the mixture was incubated for 5 minutes at room temperature. • 4. ^33P-labeled ATP (a ratio of unlabeled ATP to labeled ATP was 25:1 or 2.5:1) was added. • 5. The mixture was incubated for 2 hours at room temperature. • 6. Kinase activity was tested using the P81 filter paper combined with hotspot technology.
(§4) The IC50 values of the test compounds against NUAK1/NUAK2 were calculated according to the above test. For specific results, see Table 1.
(§5) The IC50 values were calculated by using a formula derived from sigmoidal dose-response curve (variable slope):
(§6) Y = Bottom + (Top-Bottom)/(1+10^((LogEC50-X)*Slope, where X is the logarithm of compound concentration, Y is the response (inhibition rate of kinase activity), and Y rises from bottom to top along the sigmoidal curve as the concentration increases. Table 1: IC50 (nM) of Test Compounds of the Present Application against NUAK1/NUAK2

NUAK2 = molecular target: T2, NUAK2 (Homo sapiens, UniProt Q9H093); experiment: as above; type: biochemical; conditions: final concentration of NUAK2 50 nM; 20 µM CHKtide substrate; incubated 2 hours at room temperature; read-out: IC50 (nM) of Test Compounds of the Present Application against NUAK2
T2 sequence (Q9H093 1-628): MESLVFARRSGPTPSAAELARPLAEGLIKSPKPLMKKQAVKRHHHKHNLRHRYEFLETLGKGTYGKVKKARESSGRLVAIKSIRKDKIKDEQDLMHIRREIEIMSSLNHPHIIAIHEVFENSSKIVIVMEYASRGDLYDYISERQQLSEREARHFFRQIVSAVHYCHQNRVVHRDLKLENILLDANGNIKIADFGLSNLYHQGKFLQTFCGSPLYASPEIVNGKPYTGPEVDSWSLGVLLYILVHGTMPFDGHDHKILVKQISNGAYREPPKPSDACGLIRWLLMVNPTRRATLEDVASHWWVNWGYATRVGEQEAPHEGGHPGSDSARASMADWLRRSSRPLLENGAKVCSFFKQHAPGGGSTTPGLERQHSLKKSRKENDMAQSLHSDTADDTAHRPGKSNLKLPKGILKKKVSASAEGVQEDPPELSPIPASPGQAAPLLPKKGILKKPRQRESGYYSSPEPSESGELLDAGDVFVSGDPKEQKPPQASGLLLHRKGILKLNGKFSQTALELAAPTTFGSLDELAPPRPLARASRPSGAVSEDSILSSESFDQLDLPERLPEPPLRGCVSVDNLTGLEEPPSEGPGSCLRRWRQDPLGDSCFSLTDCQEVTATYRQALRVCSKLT
Description: as §1, §2, §3, §4, §5, §6

Structure (SMILES)	IC50 (NUAK1) [nM]	IC50 (NUAK2) [nM]
CN1CCN(c2ccc(Nc3ncc(Cl)c(N(C)c4cccc(NC(=O)[C@@H]5CC5(F)F)c4)n3)cc2)CC1 [TDM-181131, (S)-N-(3-((5-Chloro-2-((4-(4-methylpiperazin-1-yl)phenyl)amino)pyrimidin-4-yl)(methyl)amino)phenyl)-2,2-difluorocyclopropane-1-carboxamide]	81	635
O=C(Nc1cccc(Oc2nc(Nc3cnn(C4CCNCC4)c3)ncc2Cl)c1)C1CC1(F)F (stereo not shown) [TDM-181127, N-(3-((5-Chloro-2-((1-(piperidin-4-yl)-1H-pyrazol-4-yl)amino)pyrimidin-4-yl)oxy)phenyl)-2,2-difluorocyclopropane-1-carboxamide]	161	352
COc1cc(N2CCN(C)CC2)ccc1Nc1ncc(Cl)c(Oc2ccccc2NC(=O)C2CC2)n1 [TDM-181132, N-(2-((5-Chloro-2-((2-methoxy-4-(4-methylpiperazin-1-yl)phenyl)amino)pyrimidin-4-yl)oxy)phenyl)cyclopropanecarboxamide]	24	37
CN1CCN(c2ccc(Nc3ncc(Cl)c(Oc4cccc(NC(=O)C5CC5(F)F)c4)n3)cc2)CC1 (stereo not shown) [TDM-181120]	21	311
COc1cc(N2CCN(C)CC2)ccc1Nc1ncc(Cl)c(Oc2ccccc2NC(=O)[C@@H]2CC2(F)F)n1 [TDM-181160, (S)-N-(2-((5-Chloro-2-((2-methoxy-4-(4-methylpiperazin-1-yl)phenyl)amino)pyrimidin-4-yl)oxy)phenyl)-2,2-difluorocyclopropane-1-carboxamide]	4	13
